Active and inactive are the calls of the source. No rule for the calls is given here.
Test system: CCRIS mutagenicity, Ames/micronucleus/aberration tests
Experiment: CCRIS mutagenicity studies
[1] = Test System: AMES SALMONELLA TYPHIMURIUM, Strain/Indicator: TA97, Metabolic Activation: HAMSTER, LIVER, S-9, AROCLOR 1254 (10 OR 30%), Method: PREINCUBATION
[2] = Test System: AMES SALMONELLA TYPHIMURIUM, Strain/Indicator: TA97, Metabolic Activation: NONE, Method: PREINCUBATION
[3] = Test System: AMES SALMONELLA TYPHIMURIUM, Strain/Indicator: TA98, Metabolic Activation: HAMSTER, LIVER, S-9, AROCLOR 1254 (10 OR 30%), Method: PREINCUBATION
[4] = Test System: AMES SALMONELLA TYPHIMURIUM, Strain/Indicator: TA98, Metabolic Activation: NONE, Method: PREINCUBATION
[5] = Test System: AMES SALMONELLA TYPHIMURIUM, Strain/Indicator: TA98, Metabolic Activation: RAT, LIVER, S-9, AROCLOR 1254 (10 OR 30%), Method: PREINCUBATION
[6] = Test System: AMES SALMONELLA TYPHIMURIUM, Strain/Indicator: TA100, Metabolic Activation: HAMSTER, LIVER, S-9, AROCLOR 1254 (10 OR 30%), Method: PREINCUBATION
[7] = Test System: AMES SALMONELLA TYPHIMURIUM, Strain/Indicator: TA100, Metabolic Activation: NONE, Method: PREINCUBATION
[8] = Test System: AMES SALMONELLA TYPHIMURIUM, Strain/Indicator: TA100, Metabolic Activation: RAT, LIVER, S-9, AROCLOR 1254 (10 OR 30%), Method: PREINCUBATION
[9] = Test System: AMES SALMONELLA TYPHIMURIUM, Strain/Indicator: TA1535, Metabolic Activation: HAMSTER, LIVER, S-9, AROCLOR 1254 (10 OR 30%), Method: PREINCUBATION
[10] = Test System: AMES SALMONELLA TYPHIMURIUM, Strain/Indicator: TA1535, Metabolic Activation: NONE, Method: PREINCUBATION
[11] = Test System: AMES SALMONELLA TYPHIMURIUM, Strain/Indicator: TA1535, Metabolic Activation: RAT, LIVER, S-9, AROCLOR 1254 (10 OR 30%), Method: PREINCUBATION
[12] = Test System: E. COLI, Strain/Indicator: WP2 UVRA, Metabolic Activation: NONE, Method: STANDARD PLATE
[13] = Test System: E. COLI, Strain/Indicator: WP2 UVRA, Metabolic Activation: NONE, Method: FLUCTUATION TEST

Row | Compound | mutagenic call [1] | mutagenic call [2] | mutagenic call [3] | mutagenic call [4] | mutagenic call [5] | mutagenic call [6] | mutagenic call [7] | mutagenic call [8] | mutagenic call [9] | mutagenic call [10] | mutagenic call [11] | mutagenic call [12] | mutagenic call [13] | also measured
1 | S=C(NC1CCCCC1)NC1CCCCC1 | inactive; negative | inactive; negative | inactive; negative | inactive; negative | inactive; negative | inactive; negative | inactive; negative | inactive; negative | inactive; negative | inactive; negative | inactive; negative | inactive; negative |  | mutagenic call (Test System: AMES SALMONELLA TYPHIMURIUM, Strain/Indicator: TA97, Metabolic Activation: RAT, LIVER, S-9, AROCLOR 1254 (10%), Method: PREINCUBATION): inactive; negative; mutagenic call (Test System: AMES SALMONELLA TYPHIMURIUM, Strain/Indicator: TA97, Metabolic Activation: RAT, LIVER, S-9, AROCLOR 1254 (30%), Method: PREINCUBATION): inactive; negative; mutagenic call (Test System: AMES SALMONELLA TYPHIMURIUM, Strain/Indicator: TA1537, Metabolic Activation: HAMSTER, LIVER, S-9, AROCLOR 1254 (10%), Method: PREINCUBATION): inactive; negative; mutagenic call (Test System: E. COLI, Strain/Indicator: WP2 UVRA, Metabolic Activation: HAMSTER, LIVER, S-9, AROCLOR 1254, Method: STANDARD PLATE): inactive; negative; mutagenic call (Test System: E. COLI, Strain/Indicator: WP2 UVRA, Metabolic Activation: HAMSTER, LIVER, S-9, Method: STANDARD PLATE): inactive; negative; mutagenic call (Test System: E. COLI, Strain/Indicator: WP2 UVRA, Metabolic Activation: MOUSE, LIVER, S-9, AROCLOR 1254, Method: STANDARD PLATE): inactive; negative; mutagenic call (Test System: E. COLI, Strain/Indicator: WP2 UVRA, Metabolic Activation: MOUSE, LIVER, S-9, Method: STANDARD PLATE): inactive; negative; mutagenic call (Test System: E. COLI, Strain/Indicator: WP2 UVRA, Metabolic Activation: RAT, LIVER, S-9, AROCLOR 1254, Method: STANDARD PLATE): inactive; negative; mutagenic call (Test System: E. COLI, Strain/Indicator: WP2 UVRA, Metabolic Activation: RAT, LIVER, S-9, Method: STANDARD PLATE): inactive; negative; mutagenic call (Test System: MOUSE LYMPHOMA, Strain/Indicator: L5178Y (TK+/TK-), Metabolic Activation: RAT, LIVER, S-9, AROCLOR 1254, Method: SUSPENSION/PLATE): inactive; negative
2 | ONc1ccc(Br)cc1 |  |  |  |  |  |  |  |  |  |  |  |  | inactive; negative | 
3 | NCCS(=O)(=O)O | inactive; negative | inactive; negative | inactive; negative | inactive; negative | inactive; negative | inactive; negative | inactive; negative | inactive; negative | inactive; negative | inactive; negative | inactive; negative |  |  | mutagenic call (Test System: AMES SALMONELLA TYPHIMURIUM, Strain/Indicator: TA97, Metabolic Activation: RAT, LIVER, S-9, AROCLOR 1254 (10 OR 30%), Method: PREINCUBATION): inactive; negative
4 | O=C1NCNC(=O)N1 |  |  |  | inactive; negative |  |  | inactive; negative |  |  | inactive; negative |  |  |  | mutagenic call (Test System: AMES SALMONELLA TYPHIMURIUM, Strain/Indicator: TA98, Metabolic Activation: MAIZE SEEDLING, S-14, Method: PREINCUBATION): active; positive; mutagenic call (Test System: AMES SALMONELLA TYPHIMURIUM, Strain/Indicator: TA98, Metabolic Activation: MOUSE, LIVER, S-9, Method: PREINCUBATION): active; positive; mutagenic call (Test System: AMES SALMONELLA TYPHIMURIUM, Strain/Indicator: TA100, Metabolic Activation: MAIZE SEEDLING, S-14, Method: PREINCUBATION): active; positive; mutagenic call (Test System: AMES SALMONELLA TYPHIMURIUM, Strain/Indicator: TA100, Metabolic Activation: MOUSE, LIVER, S-9, Method: PREINCUBATION): inactive; negative; mutagenic call (Test System: AMES SALMONELLA TYPHIMURIUM, Strain/Indicator: TA1537, Metabolic Activation: NONE, Method: PREINCUBATION): inactive; negative; mutagenic call (Test System: AMES SALMONELLA TYPHIMURIUM, Strain/Indicator: TA1538, Metabolic Activation: NONE, Method: PREINCUBATION): inactive; negative
5 | O=[N+]([O-])c1ccc(NO)cc1 |  |  |  |  |  |  |  |  |  |  |  | inactive; negative | active; positive | mutagenic call (Test System: AMES SALMONELLA TYPHIMURIUM, Strain/Indicator: TA98(NR), Metabolic Activation: NONE, Method: STANDARD PLATE): active; positive; mutagenic call (Test System: AMES SALMONELLA TYPHIMURIUM, Strain/Indicator: TA98(NR), Metabolic Activation: RAT, LIVER, S-9, AROCLOR 1254, Method: STANDARD PLATE): inactive; negative; mutagenic call (Test System: AMES SALMONELLA TYPHIMURIUM, Strain/Indicator: TA98, Metabolic Activation: NONE, Method: STANDARD PLATE): active; positive; mutagenic call (Test System: AMES SALMONELLA TYPHIMURIUM, Strain/Indicator: TA98, Metabolic Activation: RAT, LIVER, S-9, AROCLOR 1254, Method: STANDARD PLATE): active; positive; mutagenic call (Test System: AMES SALMONELLA TYPHIMURIUM, Strain/Indicator: TA100, Metabolic Activation: NONE, Method: STANDARD PLATE): active; positive; mutagenic call (Test System: AMES SALMONELLA TYPHIMURIUM, Strain/Indicator: TA1535, Metabolic Activation: NONE, Method: STANDARD PLATE): active; positive; mutagenic call (Test System: AMES SALMONELLA TYPHIMURIUM, Strain/Indicator: TA1538(NR), Metabolic Activation: NONE, Method: STANDARD PLATE): active; positive; mutagenic call (Test System: AMES SALMONELLA TYPHIMURIUM, Strain/Indicator: TA1538(NR), Metabolic Activation: RAT, LIVER, S-9, AROCLOR 1254, Method: STANDARD PLATE): active; positive; mutagenic call (Test System: AMES SALMONELLA TYPHIMURIUM, Strain/Indicator: TA1538, Metabolic Activation: NONE, Method: STANDARD PLATE): active; positive; mutagenic call (Test System: AMES SALMONELLA TYPHIMURIUM, Strain/Indicator: TA1538, Metabolic Activation: RAT, LIVER, S-9, AROCLOR 1254, Method: STANDARD PLATE): active; positive; mutagenic call (Test System: E. COLI, Strain/Indicator: WP2 UVRA(P), Metabolic Activation: NONE, Method: STANDARD PLATE): active; positive

Source: PubChem BioAssay AID1259407 (Chemical Carcinogenesis Research Information System (CCRIS), 2018)
